Experimental data as given in patent US11564394B2, “Distorted gold (I)-phosphine complexes and methods for use as antifungal agents” (University of Kentucky Research Foundation, priority 2019, dated 2023).
≈ marks a conversion by molar mass, not a printed value.

Tests used:
[1] = test system: C. auris AR Bank # 0384 (strain K) pre-formed biofilm; assay type: cell-based, Candida auris; settings: biofilm treated at 24 h, XTT
[2] = test system: C. albicans ATCC 10231 (strain B) pre-formed biofilm; experiment: Disruption of pre-formed biofilm (XTT); assay type: cell-based, Candida albicans
[3] = test system: C. auris AR Bank # 0382 (strain II); experiment: MIC determination (broth microdilution); assay type: cell-based, Candida auris; settings: strain II = C. auris AR Bank # 0382; MIC-0; 48 h (CAS read at 24 h)
[4] = test system: C. albicans ATCC MYA-1003(R) (strain A); assay type: cell-based, Candida albicans; settings: strain A = C. albicans ATCC MYA-1003(R); MIC-0; 48 h at 35° C.
[5] = test system: C. auris AR Bank # 0388 (strain VII); experiment: MIC determination (broth microdilution); assay type: cell-based, Candida auris; settings: strain VII = C. auris AR Bank # 0388; MIC-0; 48 h (CAS read at 24 h)
[6] = test system: C. auris AR Bank # 0390 (strain L) biofilm; assay type: cell-based, Candida auris; settings: treated at 0 h, XTT
[7] = test system: fungal strains (Candida spp., Cryptococcus spp., Aspergillus spp., Fusarium spp.); experiment: MIC determination, summary statements over the strain panel; assay type: cell-based; settings: all filamentous fungi, Aspergillus spp. and Fusarium spp.
[8] = test system: C. neoformans ATCC MYA-85 (strain M); experiment: MIC determination (broth microdilution); assay type: cell-based, Cryptococcus neoformans; settings: strain M = C. neoformans ATCC MYA-85; MIC-0; 72 h at 35° C.
[9] = test system: C. neoformans CN2 (strain O); experiment: MIC determination (broth microdilution); assay type: cell-based, Cryptococcus neoformans; settings: MIC-0, 72 h at 35° C.
[10] = test system: F. graminearum 053 (strain T); assay type: cell-based, Fusarium graminearum; settings: strain T = F. graminearum 053; MIC-0; room temperature, 5 days
[11] = test system: C. auris AR Bank # 0389 (strain VIII); experiment: MIC determination (broth microdilution); assay type: cell-based, Candida auris; settings: strain VIII = C. auris AR Bank # 0389; MIC-0; 48 h (CAS read at 24 h)
[12] = test system: C. albicans ATCC 10231(R) (strain B); assay type: cell-based, Candida albicans; settings: strain B = C. albicans ATCC 10231(R); MIC-0; 48 h; listed as split over r8 and r9 (r9 printed beside letter C)
[13] = test system: C. neoformans CN3 (strain P); experiment: MIC determination (broth microdilution); assay type: cell-based, Cryptococcus neoformans; settings: MIC-0, 72 h at 35° C.
[14] = test system: C. albicans ATCC MYA-1237(R) (strain C); assay type: cell-based, Candida albicans; settings: strain C = C. albicans ATCC MYA-1237(R); MIC-0; 48 h; listed as printed beside letter D
[15] = test system: C. auris AR Bank # 0383 (strain III); experiment: MIC determination (broth microdilution); assay type: cell-based, Candida auris; settings: strain III = C. auris AR Bank # 0383; MIC-0; 48 h (CAS read at 24 h)
[16] = test system: C. auris AR Bank # 0387 (strain VI); experiment: MIC determination (broth microdilution); assay type: cell-based, Candida auris; settings: strain VI = C. auris AR Bank # 0387; MIC-0; 48 h (CAS read at 24 h)
[17] = test system: C. albicans ATCC 90819(R) (strain G); assay type: cell-based, Candida albicans; settings: strain G = C. albicans ATCC 90819(R); MIC-0; 48 h; listed as printed without letter, below G
[18] = test system: C. krusei ATCC 6258 (strain I); experiment: MIC determination (broth microdilution); assay type: cell-based; settings: strain I = C. krusei ATCC 6258; MIC-0; 48 h; listed as split over r16 and r17 (r17 printed beside letter J)
[19] = test system: C. glabrata ATCC 2001 (strain H) biofilm; experiment: Prevention of biofilm formation (XTT); assay type: cell-based, Candida glabrata; settings: treated at 0 h
[20] = test system: C. glabrata ATCC 2001 (strain H); experiment: MIC determination (broth microdilution); assay type: cell-based, Candida glabrata; settings: strain H = C. glabrata ATCC 2001; MIC-0; 48 h at 35° C.
[21] = test system: C. albicans ATCC 10231 (strain B) biofilm; experiment: Prevention of biofilm formation (XTT); assay type: cell-based, Candida albicans; settings: treated at 0 h, 90% decrease in metabolic activity (XTT)
[22] = test system: C. glabrata ATCC 2001 (strain H) pre-formed biofilm; experiment: Disruption of pre-formed biofilm (XTT); assay type: cell-based, Candida glabrata
[23] = test system: C. parapsilosis ATCC 22019 (strain J); experiment: MIC determination (broth microdilution); assay type: cell-based; settings: strain J = C. parapsilosis ATCC 22019; MIC-0; 48 h; listed as printed beside letter K

`C[C@@H]1[C@H](O)[C@@H](C)/C=C/C=C/C=C/C=C/C=C/C=C/C=C/[C@H](O[C@@H]2O[C@H](C)[C@@H](O)[C@H](N)[C@@H]2O)C[C@@H]2O[C@](O)(C[C@@H](O)C[C@@H](O)[C@H](O)CC[C@@H](O)C[C@@H](O)CC(=O)O[C@H]1C)C[C@H](O)[C@H]2C(=O)O` [AmB, amphotericin B, reference compound] was tested. Which “Pre-formed biofilm SMIC90” value [1] did it give?
Its value is 1.95 µg/mL.

And the “SMIC90 of pre-formed biofilm relative to MIC with planktonic cells” value [2]?
The value was 32 fold.

And the “Pre-formed biofilm SMIC90” value ([2]; biofilm treated at 24 h, XTT)?
Its value is 31.3 µg/mL.

And the MIC [3]?
The MIC was 0.98 µg/mL (≈ 1.06 µM).

What about the “MIC (in parentheses)” value [3] of the same compound?
Its value is 1.1 µM (≈ 1.02 µg/mL).

And the MIC [4]?
Its MIC is 0.98 µg/mL (≈ 1.06 µM).

And the “MIC (in parentheses)” value [4]?
Its value is 1.1 µM (≈ 1.02 µg/mL).

What about the MIC [5] of the same compound?
The MIC was 1.95 µg/mL (≈ 2.11 µM).

What about the “MIC (in parentheses)” value [5] of the same compound?
Its value is 2.1 µM (≈ 1.94 µg/mL).

What about the “Biofilm prevention SMIC90” value [6] of the same compound?
Its value is 1.95 µg/mL.

What about the “MIC values (range)” value [7] of the same compound?
The value was 7.8 to 31.3 µg/mL.

And the MIC [8]?
Its MIC is over 31.3 µg/mL.

What about the “MIC (in parentheses)” value [8] of the same compound?
The value was over 33.9 µM.

What about the MIC [9] of the same compound?
The MIC was 1.95 µg/mL (≈ 2.11 µM).

What about the “MIC (in parentheses)” value [9] of the same compound?
Its value is 2.1 µM (≈ 1.94 µg/mL).

And the MIC [10]?
The MIC was 7.8 µg/mL (≈ 8.44 µM).

And the “MIC (in parentheses)” value [10]?
Its value is 8.4 µM (≈ 7.76 µg/mL).

And the MIC [11]?
Its MIC is 1.95 µg/mL (≈ 2.11 µM).

And the “MIC (in parentheses)” value [11]?
Its value is 2.1 µM (≈ 1.94 µg/mL).

What about the MIC [12] of the same compound?
Its MIC is 1.95 µg/mL (≈ 2.11 µM).

And the “MIC (in parentheses)” value [12]?
Its value is 2.1 µM (≈ 1.94 µg/mL).

What about the MIC [13] of the same compound?
Its MIC is 0.98 µg/mL (≈ 1.06 µM).

And the “MIC (in parentheses)” value [13]?
The value was 1.1 µM (≈ 1.02 µg/mL).

What about the MIC [14] of the same compound?
Its MIC is 3.9 µg/mL (≈ 4.22 µM).

What about the “MIC (in parentheses)” value [14] of the same compound?
Its value is 4.2 µM (≈ 3.88 µg/mL).

What about the MIC [15] of the same compound?
Its MIC is 1.95 µg/mL (≈ 2.11 µM).

And the “MIC (in parentheses)” value [15]?
The value was 2.1 µM (≈ 1.94 µg/mL).

What about the MIC [16] of the same compound?
Its MIC is 1.95 µg/mL (≈ 2.11 µM).

And the “MIC (in parentheses)” value [16]?
The value was 2.1 µM (≈ 1.94 µg/mL).

What about the MIC [17] of the same compound?
Its MIC is 0.98 µg/mL (≈ 1.06 µM).

And the “MIC (in parentheses)” value [17]?
The value was 1.1 µM (≈ 1.02 µg/mL).

And the MIC [18]?
The MIC was 3.9 µg/mL (≈ 4.22 µM).

What about the “MIC (in parentheses)” value [18] of the same compound?
Its value is 4.2 µM (≈ 3.88 µg/mL).

What about the “Biofilm prevention SMIC90” value [19] of the same compound?
Its value is 0.98 µg/mL.

And the MIC [20]?
Its MIC is 3.9 µg/mL (≈ 4.22 µM).

And the “MIC (in parentheses)” value [20]?
Its value is 4.2 µM (≈ 3.88 µg/mL).

And the “Biofilm prevention SMIC90” value [21]?
The value was 0.98 µg/mL.

And the “SMIC90 of pre-formed biofilm relative to MIC with planktonic cells” value [22]?
Its value is 2 fold.

What about the “Pre-formed biofilm SMIC90” value ([22]; biofilm treated at 24 h, XTT) of the same compound?
Its value is 7.8 µg/mL.

What about the MIC [23] of the same compound?
Its MIC is 3.9 µg/mL (≈ 4.22 µM).

And the “MIC (in parentheses)” value [23]?
Its value is 4.2 µM (≈ 3.88 µg/mL).
